Laboratory results taken from US20110021565A1, “PIPERIDINE DERIVATIVES AS NK3 ANTAGONISTS” (priority 2007, published 2011).
Where two headings read alike, the source gives them in different places.

Columns and labels:
[1] = target: T1, recombinant human NK3 receptor (Homo sapiens, UniProt P29371); test: [3H]SR142801 competition binding assay
T1 construct: expressed in transfected cells; host or cells: HEK293 cells, transient expression; membrane preparation
T1 sequence (P29371 1-465): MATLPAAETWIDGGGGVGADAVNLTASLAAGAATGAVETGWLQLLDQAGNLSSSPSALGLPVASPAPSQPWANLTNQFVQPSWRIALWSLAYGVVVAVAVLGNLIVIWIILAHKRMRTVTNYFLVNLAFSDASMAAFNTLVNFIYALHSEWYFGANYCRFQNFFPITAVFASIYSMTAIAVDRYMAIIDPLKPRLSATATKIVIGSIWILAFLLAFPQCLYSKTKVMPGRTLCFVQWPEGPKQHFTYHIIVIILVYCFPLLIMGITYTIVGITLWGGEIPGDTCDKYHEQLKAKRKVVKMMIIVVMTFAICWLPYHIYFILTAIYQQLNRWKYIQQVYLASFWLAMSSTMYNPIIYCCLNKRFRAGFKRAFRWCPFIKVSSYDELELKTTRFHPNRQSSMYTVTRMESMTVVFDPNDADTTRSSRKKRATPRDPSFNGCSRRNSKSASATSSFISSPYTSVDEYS
In short: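 Membranes from HEK293 cells transiently expressing the receptor (5 μg protein/well) incubated 75 min at RT with [3H]SR142801 at its KD and 10 compound concentrations (0.0003-10 μM), in pH 7.4 Tris buffer with MnCl2, phosphoramidon and BSA. Nonspecific binding defined with 10 μM SB222200; bound radioactivity counted after filtration. Ki from IC50 via Cheng-Prusoff; duplicates.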

[2] = test system: symptoms of schizophrenia; details: phase II trial, cited from earlier work
[3] = [3H]SR142801, membranes of HEK293 cells transiently expressing recombinant human NK3 receptor, read-out: hNK3 Ki
[4] = representative compounds, [3H]SR142801, HEK293 membranes, human NK3 receptor, read-out: Ki NK3 h

Row | SMILES | Ki [1, 3] [nM] | Ki [1, 4] [nM] | activity on positive symptoms of schizophrenia ([2]; altered behaviour, delusion, hallucinations, extreme emotions, excited motor activity, incoherent speech) | activity on negative symptoms of schizophrenia ([2]; depression, anhedonia, social isolation, memory and attention deficits)
1 | CC[C@H](NC(=O)C(C)(CCN1CCC(N(CCOC)C(C)=O)CC1)c1ccc(Cl)c(Cl)c1)c1ccccc1 (stereo partly drawn) [Example 152, 4-{4-[Acetyl-(2-methoxy-ethyl)-amino]-piperidin-1-yl}-2-(3,4-dichloro-phenyl)-2-methyl-N-((S)-1-phenyl-propyl)-butyramide] | 1.1 | 1.1 | – | –
2 | CC[C@@H](NC(=O)C(C)(CCN1CCC(N(CCOC)C(C)=O)CC1)c1ccc(Cl)c(Cl)c1)c1ccccc1 (stereo partly drawn) [Example 153, 4-{4-[Acetyl-(2-methoxy-ethyl)-amino]-piperidin-1-yl}-2-(3,4-dichloro-phenyl)-2-methyl-N-((R)-1-phenyl-propyl)-butyramide] | 60.9 | – | – | –
3 | CCCN(C(C)=O)C1CCN(CCC(C)(C(=O)N[C@@H](CC)c2ccccc2)c2ccc(Cl)c(Cl)c2)CC1 (stereo partly drawn) [Example 164, 4-[4-(Acetyl-propyl-amino)-piperidin-1-yl]-2-(3,4-dichloro-phenyl)-2-methyl-N-((S)-1-phenyl-propyl)-butyramide] | 0.8 | 0.8 | – | –
4 | CCCN(C(C)=O)C1CCN(CCC(C)(C(=O)N[C@H](CC)c2ccccc2)c2ccc(Cl)c(Cl)c2)CC1 (stereo partly drawn) [Example 165, 4-[4-(Acetyl-propyl-amino)-piperidin-1-yl]-2-(3,4-dichloro-phenyl)-2-methyl-N-((R)-1-phenyl-propyl)-butyramide] | 14.5 | – | – | –
5 | CC[C@H](NC(=O)C(C)(CCN1CCC(N(CC)C(C)=O)CC1)c1ccc(Cl)c(Cl)c1)c1ccccc1 (stereo partly drawn) [Example 168, 4-[4-(Acetyl-ethyl-amino)-piperidin-1-yl]-2-(3,4-dichloro-phenyl)-2-methyl-N-((S)-1-phenyl-propyl)-butyramide] | 3 | 3 | – | –
6 | CC(=O)N(C)C1(c2ccccc2)CCN(CCC[C@]2(c3ccc(Cl)c(Cl)c3)CCCN(C(=O)c3ccccc3)C2)CC1 [SR 142,801, Osanetant] | – | – | active on positive symptoms of schizophrenia | inactive in the treatment of negative symptoms

Now from value to molecule, other results behind:

Row | Ki [1, 3] [nM] | Ki [1, 4] [nM] | SMILES | activity on positive symptoms of schizophrenia ([2]; altered behaviour, delusion, hallucinations, extreme emotions, excited motor activity, incoherent speech) | activity on negative symptoms of schizophrenia ([2]; depression, anhedonia, social isolation, memory and attention deficits)
7 | 19.4 | – | COCCN(C(C)=O)C1CCN(CCC(C)(C(=O)N[C@H](CO)c2ccc(Cl)c(Cl)c2)c2ccc(Cl)c(Cl)c2)CC1 (stereo partly drawn) [Example 149, 4-{4-[Acetyl-(2-methoxy-ethyl)-amino]-piperidin-1-yl}-2-(3,4-dichloro-phenyl)-N-[(S)-1-(3,4-dichloro-phenyl)-2-hydroxy-ethyl]-2-methyl-butyramide (diastreoisomer 2)] | – | –
8 | 200 | – | CC(=O)NC1CCN(CCC(C)(C(=O)N[C@@H](CO)c2ccc(F)cc2)c2ccc(Cl)c(Cl)c2)CC1 (stereo partly drawn) [Example 160, 4-(4-Acetylamino-piperidin-1-yl)-2-(3,4-dichloro-phenyl)-N-[(R)-1-(4-fluoro-phenyl)-2-hydroxy-ethyl]-2-methyl-butyramide] | – | –
9 | 44.2 | – | CC[C@H](NC(=O)C(C)(CCN1CCC(NC(C)=O)CC1)c1ccc(Cl)c(Cl)c1)c1ccccc1 (stereo partly drawn) [Example 161, 4-(4-Acetylamino-piperidin-1-yl)-2-(3,4-dichloro-phenyl)-2-methyl-N-((S)-1-phenyl-propyl)-butyramide] | – | –
10 | 57.6 | – | CC[C@@H](NC(=O)C(C)(CCN1CCC(N(CC)C(C)=O)CC1)c1ccc(Cl)c(Cl)c1)c1ccccc1 (stereo partly drawn) [Example 169, 4-[4-(Acetyl-ethyl-amino)-piperidin-1-yl]-2-(3,4-dichloro-phenyl)-2-methyl-N-((R)-1-phenyl-propyl)-butyramide] | – | –
